Measurements reported in patent US9134328B2, “Methods of using benzothiazole derivative compounds and compositions” (University of Pittsburgh—Of the Commonwealth System of …, priority 2003, dated 2015).

Experiments:
[1] = In vivo mouse brain entry studies; design: species or system female Swiss-Webster mice
Protocol: This study reflects brain entry and clearance from normal brain tissue.
The mice were anesthetized and killed by cardiac excision following cardiac puncture to obtain arterial blood samples at 2 minutes or 30 minutes post-injection. The mouse brains were rapidly excised and divided into the cerebellum and the remaining whole brain (including brain stem) fractions. The brain samples were counted in a gamma well-counter, and the counts were decay-corrected to the time of injection relative to ^125I or ^18F standards prepared from the injection solution to determine the percent injected dose (% ID) in the samples. The brain samples were weighed to determine the percent injected dose per gram tissue (% ID/g), and this quantity was multiplied by the whole body weight (in kg) to determine the body-weight normalized radioactivity concentration [(% ID-kg)/g] of each tissue sample.

[2] = In vivo baboon PET imaging studies; settings: for peak maximum radioactivity remaining in brain at later time points / early-to-late brain radioactivity concentration: baboon brain; for early-to-late brain radioactivity concentration: ratio of early to late radioactivity concentration; for rate of non-specific clearance (t1/2): baboon cerebellum (reference region devoid of specific binding); for higher concentration of radioactivity at 90 minutes in white matter regions than in gray matter regions / clearance half-time from baboon brain gray matter / brain penetration of radioactivity at early time points: control baboon; for higher concentration of radioactivity at 90 minutes in white matter regions than in gray matter regions: 90 minutes post-injection, white matter vs gray matter such as temporal cortex; for clearance half-time from baboon brain gray matter / brain penetration of radioactivity at early time points: intravenous injection; for clearance half-time from baboon brain gray matter: PET; for brain penetration of radioactivity at early time points: PET time-activity curve, all three brain regions
Protocol: PET imaging studies in adult baboons (Papio anubis) (weight 15-35 kg, ages 6-12 years) were performed with Compound B and Compound C in accordance with the Guide for the Care and Use of Laboratory Animals adopted by NIH and with the approval of the local Institutional Animal Care and Use Committee. Prior to PET imaging, the animals were initially sedated with ketamine (10-15 mg/kg, i.m.), given atropine (0.5 mg, i.m.) to control salivation and heart rate, and intubated. The baboons were subsequently maintained on a ventilator with isofluorane (0.5-1.25%) anesthesia and medical air. Pancuronium bromide was administered as necessary (intravenously, up to 0.06 mg/kg/hour, titrated to effect) to keep the animals immobilized during the study. A femoral artery catheter was inserted to monitor blood pressure and sample arterial blood, and an intravenous catheter was placed in an antecubital vein for radiotracer injection and to administer fluids as necessary throughout the course of the imaging study. Blood pressure, heart and respiratory rates, and expired CO2 and oxygen saturation levels were monitored continuously during the PET studies. The baseline rectal body temperature (˜37° C.) was maintained using a heating blanket (Gaymar, Orchard Park, N.Y.) and temperature regulator (Yellow Springs Instruments, Yellow Springs, Ohio). Prior to scanning, the baboon's head was fixed so that the image planes were acquired approximately parallel to the orbital-meatal line.
PET data were acquired using an ECAT HR+PET scanner (CTI PET Systems, Knoxyille, Tenn.) in 3D imaging mode (63 parallel slices; 15.2 cm axial field-of-view; 4.1 mm full-width half-maximum in-plane resolution). A Neuro-Insert (CTI PET Systems) was used to reduce the contribution of scattered photon events. After the baboons were positioned in the PET scanner, a windowed transmission scan (10-15 minutes) was obtained for attenuation correction of the PET emission data using rotating ^68Ge/^68Ga rods. Compound B and Compound C were administered intravenously over 20 seconds, and a dynamic series of PET scans were acquired over 90 minutes using 26 frames of increasing length (6×20 seconds; 4×30 seconds; 6×60 seconds; 4×5 minutes; 6×10 minutes). Approximately 185 MBq (˜5 mCi) of a high specific activity (>14.8 GBq/μmol) Compound B or Compound C was injected in a baboon. In other studies, 148-296 MBq (4-8 mCi) of a high specific activity (>18.5 GBq/μmol) reference PET radiotracer was injected, including either [^11C](+)-McN5652, [carbonyl-^11C]WAY100635, or [^18F]altanserin. The PET data were reconstructed using a Hanning filter (Nyquist cut-off) and corrected for decay, photon attenuation, and scatter.
An MRI scan was obtained for each baboon using a 1.5T GE Signa scanner (GE Medical Systems, Milwaukee, Wis.) equipped with a standard head coil. A volumetric spoiled gradient recalled (SPGR) MR sequence with parameters for high contrast among gray matter, white matter, and cerebral spinal fluid (CSF) was acquired in the coronal plane (TE=5, TR=24, flip angle=40°, slice thickness=1.5 mm, NEX=2, field of view 12 cm, voxel size=0.94×1.25×1.5 mm). Each individual baboon's MR image was coregistered to the PET data using the automated image registration (AIR) algorithm for cross-modality image alignment and reslicing. The initial 16 frames ([…] post-injection) of the dynamic PET images were summed together into images consisting of a single frame. Prior to co-registration, both the MR and summed PET images were edited using the ANALYZE software package (Mayo Clinic. Rochester, Minn.) to remove extracerebral tissues that could possibly confound the co-registration process. The edited MR images were then coregistered to the summed PET image and resliced to yield MR images in the same spatial orientation and resolution as the summed PET images.

[3] = baboon cerebellar time-activity curves, reference PET radioligands

With `CNc1ccc(-c2nc3ccc(O)cc3s2)cc1[18F]` [Compound B, 2-(3-[^18F]-fluoro-4-methylamino-phenyl)-benzothiazol-6-ol] the “2 min./30 min. Ratio” value ([1]; mouse, in vivo) was 10, the “Radioactivity Conc. at 2 min.” value ([1]; mouse, in vivo) was 0.29 % ID-kg/g and the “Radioactivity Conc. at 30 min.” value ([1]; mouse, in vivo) was 0.030 % ID-kg/g. The “brain entry and clearance (in words)” value ([1]; mouse, in vivo) was “relatively high brain entry at early time points and fast clearance at later time points”, the “peak maximum radioactivity remaining in brain at later time points” value [2] was “about 25%” and the “early-to-late brain radioactivity concentration” value [2] was “about 4”. The “rate of non-specific clearance (t1/2)” value [2] was 17 min, the “higher concentration of radioactivity at 90 minutes in white matter regions than in gray matter regions” value [2] was about 30% and the “clearance half-time from baboon brain gray matter” value [2] was “about 17 minutes”. For the same compound, the “brain penetration of radioactivity at early time points” value [2] was “about 0.40 % ID-kg/g”.

In the case of `Oc1ccc2nc(-c3ccc(NCCC[18F])cc3)sc2c1` [Compound C, 2-[4-(3-^18F-fluoro-propylamino)-phenyl]benzothiazol-6-ol], the “brain entry and clearance (in words)” value ([1]; mouse brain, 2 and 30 minutes post-injection) is reported as “relatively high brain entry at early time points and fast clearance at later time points”, the “Radioactivity Conc. at 2 min.” value ([1]; mouse brain, 2 minutes post-injection, lateral tail vein injection, wild type mice without amyloid deposits) is reported as 0.17 % ID-kg/g and the “Radioactivity Conc. at 30 min.” value ([1]; mouse brain, 30 minutes post-injection, lateral tail vein injection, wild type mice without amyloid deposits) is reported as 0.011 % ID-kg/g. For the same compound, the “2 min./30 min. Ratio” value ([1]; ratio of 2 minutes-to-30 minutes (% ID-kg)/g values, mouse brain, measure of non-specific binding clearance rate) was 16, the “peak maximum radioactivity remaining in brain at later time points” value [2] was “about 15%” and the “early-to-late brain radioactivity concentration” value [2] was “about 6”. The “rate of non-specific clearance (t1/2)” value [2] was 10 min, the “higher concentration of radioactivity at 90 minutes in white matter regions than in gray matter regions” value [2] was under 10% and the “clearance half-time from baboon brain gray matter” value [2] was “about 10 minutes”. The “brain penetration of radioactivity at early time points” value [2] was “about 0.22 % ID-kg/g”.

With `[11CH3]Sc1ccc([C@@H]2CN3CCC[C@@H]3c3ccccc32)cc1` [[^11C](+)-McN5652, reference compound] the “non-specific binding clearance rate (in words)” value [2, 3] was “relatively slow in vivo clearance”.

In the case of `O=C(c1ccc([18F])cc1)C1CCN(CCn2c(=S)[nH]c3ccccc3c2=O)CC1` [[^18F]altanserin, reference compound], the “non-specific binding clearance rate (in words)” value [2, 3] is reported as “relatively rapid non-specific binding clearance rates”.

For `COc1ccccc1N1CCN(CCN(c2ccccn2)[11C](=O)C2CCCCC2)CC1` [[carbonyl-^11C]WAY100635, reference compound], the “non-specific binding clearance rate (in words)” value ([2]; in vivo) was “relatively rapid non-specific binding clearance rates”.
